According to patent publication US11324725B2, “Compositions and methods for the inhibition of pruritus” (The United States of America, as represented by the …, priority 2017, dated 2022):
Entries after “also recorded” stand apart in the source; their conditions may differ. Read-outs that look alike come from different tables or passages of the source.

Molecular target: T1, hNpr1 (Homo sapiens, UniProt P16066)
T1 sequence (P16066 33-1061): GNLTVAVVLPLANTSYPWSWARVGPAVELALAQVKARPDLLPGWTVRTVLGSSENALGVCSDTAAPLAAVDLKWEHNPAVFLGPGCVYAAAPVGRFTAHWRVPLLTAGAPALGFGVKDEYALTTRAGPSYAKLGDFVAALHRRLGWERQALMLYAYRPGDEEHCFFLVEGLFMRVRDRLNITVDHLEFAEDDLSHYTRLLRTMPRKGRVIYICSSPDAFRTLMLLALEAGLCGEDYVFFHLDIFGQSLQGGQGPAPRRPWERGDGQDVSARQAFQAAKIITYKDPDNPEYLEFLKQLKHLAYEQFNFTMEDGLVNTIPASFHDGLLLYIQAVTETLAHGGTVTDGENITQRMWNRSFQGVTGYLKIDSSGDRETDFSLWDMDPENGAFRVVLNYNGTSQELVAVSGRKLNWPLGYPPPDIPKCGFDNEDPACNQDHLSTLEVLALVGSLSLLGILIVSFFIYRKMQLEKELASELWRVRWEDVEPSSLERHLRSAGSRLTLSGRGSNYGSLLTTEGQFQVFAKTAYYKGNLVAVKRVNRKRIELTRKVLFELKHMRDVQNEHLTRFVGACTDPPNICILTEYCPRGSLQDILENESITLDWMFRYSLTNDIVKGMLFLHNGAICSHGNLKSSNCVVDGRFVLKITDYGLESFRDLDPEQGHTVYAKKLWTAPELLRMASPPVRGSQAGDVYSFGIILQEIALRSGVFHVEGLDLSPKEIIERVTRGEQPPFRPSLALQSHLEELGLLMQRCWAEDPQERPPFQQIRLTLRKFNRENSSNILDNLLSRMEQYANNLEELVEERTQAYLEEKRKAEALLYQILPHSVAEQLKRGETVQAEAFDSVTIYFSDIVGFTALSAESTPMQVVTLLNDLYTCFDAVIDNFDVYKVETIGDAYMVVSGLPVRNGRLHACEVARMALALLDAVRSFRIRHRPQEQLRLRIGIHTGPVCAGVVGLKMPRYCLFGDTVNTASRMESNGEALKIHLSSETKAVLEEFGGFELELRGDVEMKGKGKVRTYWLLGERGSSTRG
Assay: qHTS GloSensor cGMP assay, hNppa-stimulated HEK-hNpr1-cGMP-sensor cells (1536-well)
Type: cell-based
Conditions: for Imax, HEK-hNpr1-cGMP-sensor cells: −100% = 38.3 μM A-71915; for Inhibition of hNppa-induced hNpr1 activity (in words): HEK-hNpr1-cGMP-sensor cells
Text: In order to identify small molecular compounds that inhibit the Npr1 receptor a high-throughput assay to probe inhibition of the receptor guanylate cyclase Npr1 was developed. The assay was designed taking advantage of Promega's GloSensor™ technology (Promega, Madison, Wis.). This technology involves the expression of a cyclic guanosine monophosphate (cGMP) biosensor, comprised of a firefly luciferase variant that was coupled to the cGMP binding domain of human phosphodiesterase 5A, and loading of cells with a cell-permeable luciferase substrate to monitor cGMP production by Npr1 in real time in live cells. Briefly, human embryonic kidney 293 cells stably expressing the human Npr1 and the pGloSensor™-40F cGMP vector (“pGloSensor™-40F”) were generated. Stimulating these cells with the Npr1 agonists human NppA or NppB, luciferase-induced light production could be detected in a dose-dependent manner. HEK293 cells stably expressing human Npr2 and pGS-40F and cells only expressing pGS-40F were also generated to conduct secondary counter screens. In these cells, NppC or sodium nitroprusside were used to stimulate Npr2 or soluble guanylate cyclase which is endogenously expressed in HEK293 cells, respectively. The Npr2-NppC counter screen was employed to search for agents that minimally effected this agonist-receptor interaction. The Npr2-NppC system was used because the side effects of most drugs occur on related receptors. Npr1 and Npr2 are the most related receptors in sequence and function and there are no additional active receptor subtypes in this family of receptors. The procedure is described in detail below.
Measurement of intracellular cGMP production in HEK-hNpr1-cGMP-sensor cells was scaled to 4 μl volumes in 1536-well format and primary screening was performed in an automated manner in 7- to 11-point qHTS. Cells (1.5×10^3) were plated in assay medium in white, solid bottom TC treated 1536-well plates (Greiner Bio-One) with a Multidrop™ Combi Reagent Dispenser (Thermo Fisher Scientific). Cells were incubated at 37° C., 5% CO2 and 95% humidity for 16 hours and 1 μl of GloSensor™ reagent at a final assay concentration of 2% or assay medium as background control was added to respective wells with a BioRAPTR Flying Reagent Dispenser™ (Beckman Coulter, Schaumburg, Ill.). Cells were incubated at room temperature for 2 hours, protected from light. Compound (23 nl) was transferred by a pintool (Kalypsys, San Diego, Calif.) in the concentration range of […] to 46.1 μM along with DMSO and a titration of A-71915 from top concentration 38.3 μM to 1.7 nM in columns 1-4 of each plate as vehicle and positive controls, respectively. Cells were incubated with compound for 30 minutes at room temperature, protected from light. Pre-agonist luminescence for each plate was read on a ViewLux™ plate reader (PerkinElmer). Human NppA (1 μl) at a final assay concentration of 0.1 nM, or C02-independent media were added to respective wells with a BioRAPTR Flying Reagent Dispenser™ (Beckman Coulter). Plates were incubated for 20 minutes at room temperature, protected from light, and luminescence was read on a ViewLux™ plate reader.
Pre-agonist and post-agonist data were normalized by plate to corresponding intra-plate controls as described in Inglese et al., PNAS USA, 103: 11473-11478 (2006) (which is incorporated herein by reference, in its entirety). Assay statistics including S:N and Z′ were calculated using the same respective controls. Pre-agonist data were normalized to the average signal of DMSO-treated wells with 2% GoSensor™ reagent as 0% and the average signal of DMSO-treated wells with assay medium as −100% activity. Post-agonist data were normalized to the average signal of DMSO-treated wells with 2% GoSensor™ reagent and 0.1 nM hNppA as 0% and the average signal of wells treated with 38.3 μM A-71915 with 2% GloSensor™ reagent and 0.1 nM hNppA as −100% activity. […]

[1] = Table 1, cell-based GloSensor assay of hNpr1 inhibition, read-out: IC50 GloSensor™ assay
[2] = qHTS follow-up, hNppa-stimulated, four-parameter fit, read-out: IC50, HEK-hNpr1-cGMP-sensor cells
[3] = qHTS follow-up, hNppa-stimulated

With O=C(Cc1ccc(Cl)cc1)N1Cc2ccccc2CC2(CCCN2CC2CCNC2)C1 (stereo not drawn) [JS-2, 2-(4-chlorophenyl)-1-(1′-(pyrrolidin-3-ylmethyl)-1,5-dihydrospiro[benzo[c]azepine-4,2′-pyrrolidin]-2(3H)-yl)ethan-1-one] the IC50 [1] was 13 µM, the IC50 [2] was 25 ± 1.3 µM and the “Imax, HEK-hNpr1-cGMP-sensor cells” value [3] was −102 ± 9%.
In the case of Cc1noc(C)c1-c1cc(-c2ccccc2Oc2ccccc2)cn2cncc12 [JS-5, 3,5-dimethyl-4-(6-(2-phenoxyphenyl)imidazo[1,5-a]pyridin-8-yl)isoxazole], the “Inhibition of hNppa-induced hNpr1 activity (in words)” value (from here on “Inhibition”) is reported as “inhibit hNpr1 activity; also recorded: inhibits hNppa-induced hNpr1 activity; also recorded: antagonizes natriuretic peptide-induced activation”, the IC50 [1] is reported as 28.2 µM and the IC50 [2] is reported as 32 ± 13 µM. The “Imax, HEK-hNpr1-cGMP-sensor cells” value [3] was −127 ± 12%.
For Cc1cc(CNC(=O)c2ccc3c(c2)n(CC2CC2)c(=O)n3C2CCCCC2)on1 [JS-11, 1-cyclohexyl-3-(cyclopropylmethyl)-N-((3-methylisoxazol-5-yl)methyl)-2-oxo-2,3-dihydro-1H-benzo[d]imidazole-5-carboxamide], the “Inhibition” value was “inhibit hNpr1 activity; also recorded: inhibits hNppa-induced hNpr1 activity; also recorded: antagonizes natriuretic peptide-induced activation”, the IC50 [1] was 5.62 µM and the IC50 [2] was 21 ± 1.3 µM. For the same compound, the “Imax, HEK-hNpr1-cGMP-sensor cells” value [3] was −140 ± 13%.
In the case of COc1ccccc1-c1n[nH]c2ncc(C(=O)NCc3cccnc3)nc12 [JS-6, 3-(2-methoxyphenyl)-N-(pyridin-3-ylmethyl)-1H-pyrazolo[3,4-b]pyrazine-5-carboxamide], the IC50 [1] is reported as 11.2 µM, the IC50 [2] is reported as 24 ± 1.2 µM and the “Imax, HEK-hNpr1-cGMP-sensor cells” value [3] is reported as −15 ± 3%.
In the case of Cc1nn2c(c1-c1ccccc1OCc1ccccc1)N(C(=O)Cc1ccccn1)CCC2 [JS-9, 1-(3-(2-(benzyloxy)phenyl)-2-methyl-6,7-dihydropyrazolo[1,5-a]pyrimidin-4(5H)-yl)-2-(pyridin-2-yl)ethan-1-one], the IC50 [1] is reported as 8.91 µM, the IC50 [2] is reported as 35 ± 15 µM and the “Imax, HEK-hNpr1-cGMP-sensor cells” value [3] is reported as −106 ± 18%.
For COc1cc(CN2CCC(C)(NC(C)=O)CC2)cc(-c2ccncc2)c1 [JS-4, N-(1-(3-methoxy-5-(pyridin-4-yl)benzyl)-4-methylpiperidin-4-yl)acetamide], the IC50 [1] was 14.1 µM, the IC50 [2] was 16 ± 13 µM and the “Imax, HEK-hNpr1-cGMP-sensor cells” value [3] was −110 ± 10%.
CCC(CC)c1cc([C@H]2CN3CC[C@H]2C[C@@H]3CNS(=O)(=O)c2cccs2)nc(-c2ccncc2)n1 [JS-3, N-(((2R,4S,5R)-5-(6-(pentan-3-yl)-2-(pyridin-4-yl)pyrimidin-4-yl)quinuclidin-2-yl)methyl)thiophene-2-sulfonamide] was tested, and the IC50 [1] was 14.1 µM, the IC50 [2] was 62 ± 19 µM and the “Imax, HEK-hNpr1-cGMP-sensor cells” value [3] was −183 ± 67%.
With N#Cc1ccccc1CN1CCCC(C(=O)NCc2ccccc2)CCNC(=O)CC1 (stereo not drawn) [JS-13, N-benzyl-1-(2-cyanobenzyl)-4-oxo-1,5-diazacycloundecane-8-carboxamide] the IC50 [1] was 3.98 µM, the IC50 [2] was 10 ± 1.2 µM and the “Imax, HEK-hNpr1-cGMP-sensor cells” value [3] was −99 ± 6%.
With O=C(NCc1cccnc1)c1cnc2[nH]nc(-c3ccccc3)c2n1 [JS-7, 3-phenyl-N-(pyridin-3-ylmethyl)-1H-pyrazolo[3,4-b]pyrazine-5-carboxamide] the IC50 [1] was 22.4 µM, the IC50 [2] was 85 ± 22 µM and the “Imax, HEK-hNpr1-cGMP-sensor cells” value [3] was −216 ± 97%.
With Cl.O=C1Nc2ccccc2CN(CC2CCCCC2)C12CCNCC2 [JS-1, 4-(cyclohexylmethyl)-4,5-dihydrospiro[benzo[e][1,4]diazepine-3,4′-piperidin]-2(1H)-one hydrochloride] the IC50 [1] was 7.31 µM, the IC50 [2] was 26 ± 1.5 µM and the “Imax, HEK-hNpr1-cGMP-sensor cells” value [3] was −119 ± 20%.
Cc1nn2c(c1-c1ccccc1OCc1ccccc1)N(C(=O)Cc1ccc3c(c1)OCO3)CCC2 [JS-8, 2-(benzo[d][1,3]dioxol-5-yl)-1-(3-(2-(benzyloxy)phenyl)-2-methyl-6,7-dihydropyrazolo[1,5-a]pyrimidin-4(5H)-yl)ethan-1-one] was tested, and the “Inhibition” value was “inhibit hNpr1 activity; also recorded: inhibits hNppa-induced hNpr1 activity; also recorded: antagonizes natriuretic peptide-induced activation”, the IC50 [1] was 8.91 µM and the IC50 [2] was 13 ± 1.2 µM. For the same compound, the “Imax, HEK-hNpr1-cGMP-sensor cells” value [3] was −122 ± 9%.
COc1ccc(C2(C(=O)N3CCC4(CC3)c3nccn3-c3ccccc3CN4C)CC2)cc1 [JS-12, (1-(4-methoxyphenyl)cyclopropyl)(5-methyl-5,6-dihydrospiro[benzo[f]imidazo[1,2-a][1,4]diazepine-4,4′-piperidin]-1′-yl)methanone] was tested, and the IC50 [1] was 8.91 µM, the IC50 [2] was 16 ± 1.3 µM and the “Imax, HEK-hNpr1-cGMP-sensor cells” value [3] was −116 ± 11%.
With Cc1nn2c(c1-c1ccccc1Oc1ccccc1)N(C(=O)Cc1ccc3c(c1)OCO3)CCC2 [JS-10, 2-(benzo[d][1,3]dioxol-5-yl)-1-(2-methyl-3-(2-phenoxyphenyl)-6,7-dihydropyrazolo[1,5-a]pyrimidin-4(5H)-yl)ethan-1-one] the IC50 [1] was 7.94 µM, the IC50 [2] was 17 ± 1.3 µM and the “Imax, HEK-hNpr1-cGMP-sensor cells” value [3] was −122 ± 12%.
CN(Cc1ccccc1)C(=O)c1cn2ccnc(-c3ccccc3)c2n1 [JS-14, N-benzyl-N-methyl-8-phenylimidazo[1,2-a]pyrazine-2-carboxamide] was tested, and the IC50 [1] was 6.31 µM, the IC50 [2] was 117 ± 75 µM and the “Imax, HEK-hNpr1-cGMP-sensor cells” value [3] was −286 ± 966%.
